In patent publication US20260256926A1, “BIFACIAL PEPTIDE NUCLEIC ACID PROBES AND METHODS OF USING THEREOF” (Ohio State Innovation Foundation, priority 2022, published 2026):

Tests used:
[1] = cited from earlier work
[2] = test system: duplex nucleic acid substrates bearing single abasic, single NCP, and tandem NCP sites; assay: Fluorogenic probe library screen, overall; format: binding; conditions: 2 μM probe, 2 μM duplex
Protocol: (§1) Fluorescence Measurements. Samples for screening were prepared as solutions with 50 mM HEPES (pH 7.5), 100 mM NaCl, 2 μM dsDNA/dsRNA, 2 μM probe (4 μM probe with tandem mismatch). Prior to use, nucleic acids were annealed (95° C./5 min, slow cool to RT over 2 h) to pre-form the duplex. Prepared samples were incubated at room temperature for 30 min before measuring fluorescence (Thermo Fisher Nanodrop 3300, excitation/emission=470/522 nm). For each measurement, 2 μl of sample was applied to the center of the nanodrop probe. All fluorescence values are the average of triplicate measurements, starting from fresh sample preparation. Error bars indicate standard deviation. The relative intensity (turn-on) was calculated using the equation below.

[3] = test system: tandem NCP sites (2×2 internal bulges) in dsRNA; assay: Tandem NCP RNA library screen; format: binding; conditions: 4 μM probe, 2 μM RNA duplex
Protocol: as §1

[4] = parent dye free in solution; cited from earlier work

O=c1[nH]c(=O)[nH]c(=O)[nH]1 [cyanuric acid]
pKa [1]: ~ 6.9

Nc1nc(=O)[nH]c(=O)[nH]1 [ammelide]
pKa [1]: ~ 6.9

Oc1nc(O)nc(O)n1 [CA]
binding in the abasic or single NCP screens [2]: did not show any binding
targeting of AG/CU internal bulge [3]: could be targeted

CN1C(=Cc2cc[n+](C)c3ccccc23)Sc2ccccc21 [thiazole orange]
quantum yield in solution [4]: ~ 10^−4
